The target of assay [1] is T1, Kinesin-like protein KIF11 (Homo sapiens, UniProt P52732).
T1 sequence (P52732 whole entry): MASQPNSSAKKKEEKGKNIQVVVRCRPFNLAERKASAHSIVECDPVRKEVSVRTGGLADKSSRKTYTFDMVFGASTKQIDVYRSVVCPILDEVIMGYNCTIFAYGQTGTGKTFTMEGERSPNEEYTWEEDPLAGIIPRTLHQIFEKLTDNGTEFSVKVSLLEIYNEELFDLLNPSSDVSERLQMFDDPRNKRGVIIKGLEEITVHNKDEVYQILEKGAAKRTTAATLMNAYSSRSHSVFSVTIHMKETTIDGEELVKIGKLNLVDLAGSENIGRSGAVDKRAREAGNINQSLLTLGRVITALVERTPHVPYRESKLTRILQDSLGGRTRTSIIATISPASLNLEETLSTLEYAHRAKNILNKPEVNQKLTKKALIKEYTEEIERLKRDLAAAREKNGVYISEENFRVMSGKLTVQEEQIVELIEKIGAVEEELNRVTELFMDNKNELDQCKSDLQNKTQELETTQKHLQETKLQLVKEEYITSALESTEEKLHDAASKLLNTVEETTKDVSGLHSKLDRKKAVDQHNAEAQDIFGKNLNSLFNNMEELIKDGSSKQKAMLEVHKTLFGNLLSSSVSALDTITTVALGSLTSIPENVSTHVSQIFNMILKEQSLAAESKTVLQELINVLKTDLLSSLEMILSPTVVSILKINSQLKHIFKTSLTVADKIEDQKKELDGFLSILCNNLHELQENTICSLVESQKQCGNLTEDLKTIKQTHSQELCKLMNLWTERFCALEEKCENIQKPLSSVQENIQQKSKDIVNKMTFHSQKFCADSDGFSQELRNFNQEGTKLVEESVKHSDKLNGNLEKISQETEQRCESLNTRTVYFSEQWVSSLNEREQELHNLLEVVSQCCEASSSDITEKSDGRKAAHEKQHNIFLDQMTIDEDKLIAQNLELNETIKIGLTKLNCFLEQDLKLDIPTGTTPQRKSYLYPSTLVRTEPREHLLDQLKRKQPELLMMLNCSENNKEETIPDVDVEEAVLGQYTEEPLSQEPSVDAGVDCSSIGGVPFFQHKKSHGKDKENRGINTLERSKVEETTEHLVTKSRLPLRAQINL
Briefly: Inhibition of human kinesin spindle protein by endpoint assay.

The target in assay [2] is T2, Kinesin-like protein KIF3B (Homo sapiens, UniProt O15066).
T2 sequence (O15066 whole entry): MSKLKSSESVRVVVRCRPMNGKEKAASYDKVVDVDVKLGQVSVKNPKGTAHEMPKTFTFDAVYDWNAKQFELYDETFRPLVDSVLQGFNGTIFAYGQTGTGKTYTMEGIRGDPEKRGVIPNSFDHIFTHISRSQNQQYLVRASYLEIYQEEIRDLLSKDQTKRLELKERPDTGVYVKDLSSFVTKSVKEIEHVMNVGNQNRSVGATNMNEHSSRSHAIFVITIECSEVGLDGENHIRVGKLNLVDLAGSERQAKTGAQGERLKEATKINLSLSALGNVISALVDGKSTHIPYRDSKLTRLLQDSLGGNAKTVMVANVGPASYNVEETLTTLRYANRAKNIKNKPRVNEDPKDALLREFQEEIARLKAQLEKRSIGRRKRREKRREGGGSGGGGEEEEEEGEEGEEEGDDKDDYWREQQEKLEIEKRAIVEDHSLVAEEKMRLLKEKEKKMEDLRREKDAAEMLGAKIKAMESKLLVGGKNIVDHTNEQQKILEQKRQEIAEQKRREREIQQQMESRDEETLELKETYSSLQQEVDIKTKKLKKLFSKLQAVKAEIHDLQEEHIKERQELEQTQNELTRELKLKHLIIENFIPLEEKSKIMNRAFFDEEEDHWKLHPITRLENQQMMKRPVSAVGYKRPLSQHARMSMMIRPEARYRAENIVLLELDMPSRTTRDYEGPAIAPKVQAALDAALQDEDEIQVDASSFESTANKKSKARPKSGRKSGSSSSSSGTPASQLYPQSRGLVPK
The experiment in a line: Inhibition of Kif3B.

The target of assay [3] is T3, Kinesin heavy chain isoform 5A (Homo sapiens, UniProt Q12840).
T3 sequence (Q12840 whole entry): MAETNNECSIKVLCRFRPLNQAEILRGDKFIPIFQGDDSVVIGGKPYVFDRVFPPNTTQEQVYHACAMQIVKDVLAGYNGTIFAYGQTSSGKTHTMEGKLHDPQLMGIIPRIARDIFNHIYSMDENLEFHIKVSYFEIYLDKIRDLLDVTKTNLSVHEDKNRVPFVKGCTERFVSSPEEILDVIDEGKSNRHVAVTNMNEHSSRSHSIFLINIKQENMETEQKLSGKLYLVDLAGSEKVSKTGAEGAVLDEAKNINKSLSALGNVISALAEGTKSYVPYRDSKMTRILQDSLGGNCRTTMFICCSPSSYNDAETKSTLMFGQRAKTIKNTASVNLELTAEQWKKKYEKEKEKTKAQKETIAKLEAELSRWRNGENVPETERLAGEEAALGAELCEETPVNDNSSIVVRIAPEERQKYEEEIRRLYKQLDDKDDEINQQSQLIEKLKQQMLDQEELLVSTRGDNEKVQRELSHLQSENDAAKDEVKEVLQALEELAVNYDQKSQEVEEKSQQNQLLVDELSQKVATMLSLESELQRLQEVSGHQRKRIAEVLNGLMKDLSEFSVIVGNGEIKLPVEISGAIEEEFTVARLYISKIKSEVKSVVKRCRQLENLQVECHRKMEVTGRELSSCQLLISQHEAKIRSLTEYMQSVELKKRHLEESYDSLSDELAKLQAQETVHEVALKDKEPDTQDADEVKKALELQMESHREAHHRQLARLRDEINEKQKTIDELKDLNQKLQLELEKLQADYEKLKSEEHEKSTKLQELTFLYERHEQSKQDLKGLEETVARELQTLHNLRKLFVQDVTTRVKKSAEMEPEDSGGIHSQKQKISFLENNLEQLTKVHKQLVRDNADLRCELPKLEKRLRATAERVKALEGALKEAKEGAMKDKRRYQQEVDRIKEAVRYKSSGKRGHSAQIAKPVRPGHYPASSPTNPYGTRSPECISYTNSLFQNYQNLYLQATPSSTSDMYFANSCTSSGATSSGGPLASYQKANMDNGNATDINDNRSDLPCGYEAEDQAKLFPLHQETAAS
Briefly: Inhibition of nKHC.

Molecules are shown by their SMILES. Where only a bound is given, the exact number is not on record here.

Regarding `CC(c1ccccc1C(F)(F)F)n1c(Nc2ccc(S(N)(=O)=O)cc2)nc2cc(C(N)=O)ccc21` (stereo not drawn), the IC50 in assay [1] was above 20 µM; in assay [2] it was above 50 µM; in assay [3], above 50 µM.
The compound `NC(=O)c1ccc2nc(Nc3ccc(S(N)(=O)=O)cc3)n(Cc3ccccc3C(F)(F)F)c2c1` returned an IC50 in assay [1] above 20 µM.
Turning to `NC1CCN(c2nc3cc(C(=O)O)ccc3n2Cc2ccccc2C(F)(F)F)C1` (stereo not drawn), the IC50 is above 20 µM in assay [1], above 50 µM in assay [2] and above 50 µM in assay [3].
Turning to `COc1ccccc1Cn1c(Nc2ccc(S(N)(=O)=O)cc2)nc2cc(C(N)=O)ccc21`, the results for the IC50 in assay [1], in assay [2] and in assay [3] were 20 µM, above 50 µM and above 50 µM, respectively.
Consider `COc1ccccc1NC(=O)c1ccc2c(c1)nc(Nc1ccc(S(N)(=O)=O)cc1)n2Cc1ccccc1C(F)(F)F`, for which the IC50 is 2.4 µM in assay [1], above 50 µM in assay [2] and above 50 µM in assay [3].
For `NC(=O)c1ccc2c(c1)nc(Nc1ccc(S(N)(=O)=O)cc1)n2C1(c2ccccc2)CC1`, the IC50 in assay [1] was above 20 µM; in assay [2], above 50 µM; in assay [3] it was above 50 µM.
The compound `NC(=O)c1cc2nc(Nc3ccc(S(N)(=O)=O)cc3)n(Cc3ccccc3C(F)(F)F)c2cc1F` registered an IC50 in assay [1] of 7.9 µM.
`CSc1ccc(Nc2nc3cc(C(=O)O)ccc3n2Cc2ccccc2C(F)(F)F)cc1`: the IC50 in assay [1] was 1.4 µM; in assay [2], above 50 µM; in assay [3], above 50 µM.
For the compound `COc1ccc(CNc2nc3cc(C(=O)O)ccc3n2Cc2ccccc2C(F)(F)F)cc1`, the IC50 is above 20 µM in assay [1], above 50 µM in assay [2] and above 50 µM in assay [3].
Regarding `COc1cccc(Cn2c(Nc3ccc(S(N)(=O)=O)cc3)nc3cc(C(N)=O)ccc32)c1OC`, the IC50 in assay [1] was 5 µM; in assay [2], above 50 µM; in assay [3], above 50 µM.
With `COc1ccc(Nc2nc3cc(C(=O)Nc4ccccc4OC)ccc3n2Cc2ccccc2C(F)(F)F)cc1`, the IC50 was 6 µM in assay [1], above 50 µM in assay [2] and above 50 µM in assay [3].
As to `NC(=O)c1cc2c(cc1F)nc(Nc1ccc(S(N)(=O)=O)cc1)n2Cc1ccccc1C(F)(F)F`, the IC50 in assay [1] was above 20 µM.
For the compound `NC(=O)c1ccc2c(c1)nc(Nc1ccc(S(N)(=O)=O)cc1)n2Cc1ccccn1`, the IC50 in assay [1] is above 20 µM; in assay [2], above 50 µM; in assay [3], above 50 µM.
Consider `CSc1ccc(Cc2nc3cc(C(=O)O)ccc3n2Cc2ccccc2C(F)(F)F)cc1`, for which the IC50 in assay [1] was above 20 µM.
In the case of `CS(=O)(=O)c1ccc(CNc2nc3cc(C(=O)O)ccc3n2Cc2ccccc2C(F)(F)F)cc1`, the IC50 in assay [1] is above 20 µM; in assay [2], above 50 µM; in assay [3], above 50 µM.
As for `CNC(=O)c1ccc2c(c1)nc(Nc1ccc(S(N)(=O)=O)cc1)n2Cc1ccccc1C(F)(F)F`, the IC50 was 9.2 µM in assay [1], above 50 µM in assay [2] and above 50 µM in assay [3].
On to `NC(=O)c1ccc2c(c1)nc(Nc1ccc(S(N)(=O)=O)cc1)n2Cc1nc2ccccc2s1`, for which the IC50 is above 20 µM in assay [1], above 50 µM in assay [2] and above 50 µM in assay [3].
With `NS(=O)(=O)c1ccc(Nc2nc3cc(C(=O)N4CCCC4)ccc3n2Cc2ccccc2C(F)(F)F)cc1`, the figures for the IC50 in assay [1], in assay [2] and in assay [3] were above 20 µM, above 50 µM and above 50 µM, respectively.
Regarding `NC(=O)c1ccc2c(c1)nc(Nc1ccc(S(N)(=O)=O)cc1)n2Cc1csc2ccc(Cl)cc12`, the IC50 in assay [1] is 19 µM; in assay [2], above 50 µM; in assay [3] it was above 50 µM.
`O=C(O)c1ccc2c(c1)nc(NCCN1CCOCC1)n2Cc1ccccc1C(F)(F)F`: the results for the IC50 in assay [1], in assay [2] and in assay [3] were above 20 µM, above 50 µM and above 50 µM, respectively.
As to `Cc1ccc(CNc2nc3cc(C(=O)O)ccc3n2Cc2ccccc2C(F)(F)F)cc1`, the IC50 in assay [1] was above 20 µM; in assay [2] it was above 50 µM; in assay [3], above 50 µM.
Consider `CNC(=O)c1ccc2c(c1)nc(Nc1ccc(OC)cc1)n2Cc1ccccc1C(F)(F)F`, for which the IC50 in assay [1] was 5.2 µM; in assay [2], above 50 µM; in assay [3] it was above 50 µM.
As for `COc1ccc(Cc2nc3cc(C(=O)O)ccc3n2Cc2ccccc2C(F)(F)F)cc1`, the IC50 in assay [1] was above 20 µM.
For the compound `CN(C)C(=O)c1ccc2c(c1)nc(Nc1ccc(S(N)(=O)=O)cc1)n2Cc1ccccc1C(F)(F)F`, the IC50 was 16.3 µM in assay [1], above 50 µM in assay [2] and above 50 µM in assay [3].
Take `COc1ccc(Nc2nc3cc(C(=O)O)ccc3n2Cc2ccccc2C(F)(F)F)cc1`: the IC50 in assay [1] was above 20 µM; in assay [2] it was above 50 µM; in assay [3], above 50 µM.
For the compound `NS(=O)(=O)c1ccc(Nc2nc3cc(C(=O)O)ccc3n2Cc2ccccc2C(F)(F)F)cc1`, the results for the IC50 in assay [1], in assay [2] and in assay [3] were above 20 µM, above 50 µM and above 50 µM, respectively.
Regarding `COC(=O)c1ccc2c(c1)nc(Nc1ccc(OC)cc1)n2Cc1ccccc1C(F)(F)F`, the results for the IC50 in assay [1], in assay [2] and in assay [3] were 13.4 µM, above 50 µM and above 50 µM, respectively.
In the case of `COC(=O)c1ccc2c(c1)nc(Nc1ccc(SC)cc1)n2Cc1ccccc1C(F)(F)F`, the values for the IC50 in assay [1], in assay [2] and in assay [3] were 33.4 µM, above 50 µM and above 50 µM, respectively.
As to `COc1ccc(Nc2nc3cc(C(=O)O)ccc3n2Cc2ccccc2C(F)(F)F)cc1F`, the figures for the IC50 in assay [1], in assay [2] and in assay [3] were 2.3 µM, above 50 µM and above 50 µM, respectively.
In the case of `COC(=O)c1ccc2c(c1)nc(Nc1ccc(S(N)(=O)=O)cc1)n2Cc1ccccc1C(F)(F)F`, the figures for the IC50 in assay [1], in assay [2] and in assay [3] were 2.2 µM, above 50 µM and above 50 µM, respectively.
On to `NS(=O)(=O)c1ccc(CNc2nc3cc(C(=O)O)ccc3n2Cc2ccccc2C(F)(F)F)cc1`, for which the IC50 in assay [1] was above 20 µM; in assay [2] it was above 50 µM; in assay [3] it was above 50 µM.

In general, IC50 refers to the point on the concentration scale where inhibition reaches its midpoint. The low end stands for greater potency in that assay, the high end for weaker potency in that assay.

Values taken from ChEMBL document CHEMBL1158447, “Substituted benzimidazoles: A novel chemotype for small molecule hKSP inhibitors” (Bioorg Med Chem Lett, 2009).
